Measured values taken from patent US20160038588A1, “Myostatin Antagonism in Human Subjects” (AMGEN INC., priority 2013, published 2016).
Read-outs that look alike come from different tables or passages of the source.

What was measured:
[1] = test system: men with prostate cancer receiving ADT; experiment: Clinical study: pharmacodynamics (DXA lean and fat mass, CT lower extremity muscle size); assay type: in vivo, human
Description: Eligible subjects were men with a documented history of prostate cancer; no documented distant metastasis at time of enrollment; received ADT (androgen deprivation therapy) for at least 6 months as a primary, adjuvant, or salvage treatment for prostate cancer prior to enrollment; if ADT was being administered intermittently, serum total testosterone level <50 ng/dL at screening; a stable prostate-specific antigen (PSA) as determined by the investigator; no history of primary muscle disease, myopathy, or neuropathy; weight ≦137 kg (300 lbs) and height ≦78 inches; Eastern Cooperative Oncology Group (ECOG) performance status of 0 at screening; no clinically significant elevated creatine phosphokinase (CPK); glomerular filtration rate (GFR) >40 mL/min; aspartate aminotransferase (AST) or alanine aminotransferase (ALT)<2.5× upper limit of normal.
This planned enrollment assumed a between treatment group difference of 1.5% for the secondary endpoint, percent change in lean body mass from baseline to week 5 (standard deviation of 2.1; Smith et al. 2001), and provided 80% power for a 1-sided test at the 10% significance level. An analysis of variance (ANOVA) was used to compare percent change from baseline between treatment groups (3 mg/kg AMG 745 versus placebo).
Analyses of the pharmacodynamic effects were limited to the 3-mg/kg dose cohort and the study was designed to have 80% power to detect a statistically significant between-treatment-group difference in percent change in lean body mass.

[2] = test system: anti-AMG 745 (whole molecule) binding antibodies; experiment: Clinical study: anti-AMG 745 binding antibody immunoassays; assay type: in vivo, human; settings: subjects who received AMG 745 (1/31)
Description: For the 54 subjects who completed the study serum samples were analysed by surface-plasmon-resonance-based biosensor immunoassays for anti-AMG 745 (whole molecule) binding antibodies. Samples from 2 subjects gave positive results in 1 or more of the immunoassays: […]

[3] = test system: men with prostate cancer receiving ADT; experiment: Clinical study: lower extremity strength (1-RM knee extension) and SPPB; assay type: in vivo, human; parameters: End of Study SPPB-Total Score, Mean / End of Study SPPB-Total Score, Median / Change from Baseline to End of Study SPPB-Total Score, Mean / Change from Baseline to End of Study SPPB-Total Score, Median / Follow-up SPPB-Total Score, Mean / Follow-up SPPB-Total Score, Median: scale not given here
Description: Lower extremity strength was assessed on the basis of maximum weight lifted for one repetition (1-RM) using a knee extension machine. This assessment was performed within 2 weeks prior to and/or up to Day 2, on Day 29, and at a 1 month follow-up visit.
Short Physical Performance Battery (SPPB) was conducted within 2 weeks prior to and/or up to Day 1, on Day 29, and at the 1 month follow-up visit. The SPPB included an assessment of standing balance, timed walk test, and five repetitions of chair stand.

[4] = human, in vivo, sc
Description: (§1) This was a multicenter, randomized, double-blind, placebo-controlled, ascending-multiple-dose study in men with prostate cancer receiving ADT. The trial was designed to evaluate the safety, tolerability, PK, and pharmacodynamics of AMG 745.
(§2) Subcutaneous doses of 0.3 mg/kg, 1.0 mg/kg, and 3.0 mg/kg, were each administered once weekly for 4 weeks, and were evaluated in sequential cohorts. Eight subjects, randomized in a 3:1 allocation ratio to AMG 745 or placebo, were enrolled in the 0.3 mg/kg dose cohort and in the 1.0 mg/kg dose cohort. To evaluate safety, tolerability, PK and the effect of 4 weekly doses on lean body mass, a total of thirty-eight subjects were enrolled in the 3.0 mg/kg dose cohort, randomized in a 1:1 allocation ratio to AMG 745 or placebo.
(§3) The following procedures were performed pre-study and periodically during the study for all cohorts: physical examination, vital signs, electrocardiogram, hematology, chemistry, urinalysis, anti-AMG 745 antibody screen, and blood sample draws for PK. For the 3 mg/kg cohort DXA and lower extremity CT scans were conducted predose and on study day 29 (end of study) and at the one month follow-up visit. All DXA scans were performed on a Hologic or GE Lunar scanner. The same scanner was to be used for all visits for an individual subject. All DXA scans were sent to a central reading facility for review and analysis.
(§4) The pharmacokinetic analyses included all treated subjects for whom the pharmacokinetic parameters could be estimated. Pharmacokinetic parameters were estimated using noncompartmental methods. Summary statistics by dose cohort were generated for each pharmacokinetic parameter. Graphs of serum AMG 745 concentration-time profiles for individual subjects and the means for each dose were prepared.

[5] = Clinical study: pharmacokinetics of AMG 745 after weekly SC doses; settings: for AUC0-τ / Cmax / CL/F (apparent serum clearance, Dose/AUC Week 4): mean; for AUC0-τ: 7-day dosing interval; for Cmax: serum; for tmax: median
Description: as §1, §2, §3, §4

[6] = 3 mg/kg, baseline to EOS (day 29)
[7] = 3 mg/kg, baseline to follow-up visit
[8] = CT scan, least squares mean (SE)
[9] = DXA scan, ad hoc analysis, least squares mean (SE)
[10] = lean body mass minus the head, DXA scan, least squares mean (SE)
[11] = 0.3 mg/kg SC 4-Week Dosing (N = 6)
[12] = 1.0 mg/kg SC 4-Week Dosing (N = 6)
[13] = 3.0 mg/kg SC 4-Week Dosing (N = 19)
[14] = Week 1 (Dose 1), 0.3 mg/kg SC once-weekly
[15] = Week 1 (Dose 1), 1 mg/kg SC once-weekly
[16] = Week 1 (Dose 1), 3 mg/kg SC once-weekly
[17] = Week 4 (Dose 4), 0.3 mg/kg SC once-weekly
[18] = Week 4 (Dose 4), 1 mg/kg SC once-weekly
[19] = Week 4 (Dose 4), 3 mg/kg SC once-weekly

## AMG 745: anti-myostatin peptibody: human IgG1 Fc fused at C-terminus via GGGGGAQ linker to peptide SEQ ID NO:311; chain SEQ ID NO:635
[1]; 3 mg/kg weekly ×4, baseline to EOS (day 29)
  percent change in lean body mass, least squares mean (SE): 1.5% (0.5%)
[1]; [6]
  lower extremity muscle size percent change: 1.2% (0.7%)
  percent change in fat body mass: −0.7% (0.2%)
[1]; 3 mg/kg, baseline to EOS (day 29), p=0.005
  fat body mass, between-group difference vs placebo: −1.0% (0.3%)
[1]; 3 mg/kg, baseline to EOS (day 29), p=0.065
  lower extremity muscle size, between-group difference vs placebo: 1.8% (1.0%)
[1]; [7]
  lower extremity muscle size percent change: 2.7% (0.7%)
  percent change in fat body mass: −0.8% (0.3%)
[1]; 3 mg/kg, baseline to follow-up visit, p=0.007
  lower extremity muscle size, between-group difference vs placebo: 2.8% (1.0%)
[1]; 3 mg/kg, follow-up visit 1 month after day 29
  percent change in lean body mass, least squares mean (SE): 1.9% (0.5%)
[1]; AMG 745 vs placebo, CT, least squares mean (SE), p value 0.007
  Lower-extremity Muscle Size, Between-group difference in percent change, Baseline to Follow-up Visit [Day 58]: 2.8% (1.0%)
[1]; AMG 745 vs placebo, CT, least squares mean (SE), p value 0.065
  Lower-extremity Muscle Size, Between-group difference in percent change, Baseline to EOS [Day 29]: 1.8% (1.0%)
[1]; AMG 745 vs placebo, DXA, ad hoc, least squares mean (SE), p value 0.005
  Whole Body Fat, Between-group difference in percent change, Baseline to EOS [Day 29]: −1.0% (0.3%)
[1]; AMG 745 vs placebo, DXA, ad hoc, least squares mean (SE), p value 0.068
  Whole Body Fat, Between-group difference in percent change, Baseline to Follow-up Visit [Day 58]: −0.7% (0.4%)
[1]; AMG 745 vs placebo, DXA, least squares mean (SE), p value 0.008
  Lean Body Mass, Between-group difference in percent change, Baseline to EOS [Day 29]: 2.2% (0.8%)
[1]; AMG 745 vs placebo, DXA, least squares mean (SE), p value 0.023
  Lean Body Mass, Between-group difference in percent change, Baseline to Follow-up Visit [Day 58]: 1.7% (0.7%)
[1]; [8]
  Lower-extremity Muscle Size, Percent Change From Baseline to EOS [Day 29]: 1.2% (0.7%)
  Lower-extremity Muscle Size, Percent Change From Baseline to Follow-up Visit [Day 58]: 2.7% (0.7%)
[1]; [9]
  Whole Body Fat, Percent Change From Baseline to EOS [Day 29]: −0.7% (0.2%)
  Whole Body Fat, Percent Change From Baseline to Follow-up Visit [Day 58]: −0.8% (0.3%)
[1]; [10]
  Lean Body Mass, Percent Change From Baseline to EOS [Day 29]: 1.5% (0.5%)
  Lean Body Mass, Percent Change From Baseline to Follow-up Visit [Day 58]: 1.9% (0.5%)
[2]
  incidence of anti-AMG 745 (whole molecule) binding antibodies: 3%
[3]; [11]
  Change from Baseline to End of Study SPPB-Total Score, Mean: 0.67
  Change from Baseline to End of Study SPPB-Total Score, Median: 1.00
  End of Study SPPB-Total Score, Mean: 11.00
  End of Study SPPB-Total Score, Median: 11.00
  Follow-up SPPB-Total Score, Mean: 11.00
  Follow-up SPPB-Total Score, Median: 11.00
[3]; [12]
  Change from Baseline to End of Study SPPB-Total Score, Mean: 1.50
  Change from Baseline to End of Study SPPB-Total Score, Median: 1.50
  End of Study SPPB-Total Score, Mean: 10.33
  End of Study SPPB-Total Score, Median: 10.00
  Follow-up SPPB-Total Score, Mean: 9.50
  Follow-up SPPB-Total Score, Median: 9.00
[3]; [13]
  Change from Baseline to End of Study SPPB-Total Score, Mean: 0.37
  Change from Baseline to End of Study SPPB-Total Score, Median: 0.00
  End of Study SPPB-Total Score, Mean: 10.53
  End of Study SPPB-Total Score, Median: 11.00
  Follow-up SPPB-Total Score, Mean: 10.68
  Follow-up SPPB-Total Score, Median: 11.00
[3]; All AMG 745 Subjects (N = 31)
  Change from Baseline to End of Study SPPB-Total Score, Mean: 0.65
  Change from Baseline to End of Study SPPB-Total Score, Median: 1.00
  End of Study SPPB-Total Score, Mean: 10.58
  End of Study SPPB-Total Score, Median: 11.00
  Follow-up SPPB-Total Score, Mean: 10.52
  Follow-up SPPB-Total Score, Median: 11.00
[3]; four doses, no statistical analyses
  SPPB or 1-RM knee extension, changes from baseline: effects were not apparent
[4]; 0.3 mg/kg
  AR (accumulation ratio, AUC Week 4/AUC Week 1): 2.55
[4]; 3 mg/kg
  AR (accumulation ratio, AUC Week 4/AUC Week 1): 1.78
[5]; 4 weekly SC doses, 0.3 to 3 mg/kg
  dose linearity of pharmacokinetics: dose-linear pharmacokinetics
[5]; [14]
  AUC0-τ: 68.0 µg·h/mL
  Cmax: 502 ng/mL
[5]; Week 1 (Dose 1), 0.3 mg/kg SC once-weekly, men with prostate cancer on ADT
  tmax: 72.4 h
[5]; [15]
  AUC0-τ: 321 µg·h/mL
  Cmax: 2380 ng/mL
[5]; Week 1 (Dose 1), 1 mg/kg SC once-weekly, men with prostate cancer on ADT
  tmax: 24.3 h
[5]; [16]
  AUC0-τ: 800 µg·h/mL
  Cmax: 6380 ng/mL
[5]; Week 1 (Dose 1), 3 mg/kg SC once-weekly, men with prostate cancer on ADT
  tmax: 71.8 h
[5]; [17]
  CL/F (apparent serum clearance, Dose/AUC Week 4): 1.96 mL/h/kg
  AUC0-τ: 175 µg·h/mL
  Cmax: 1340 ng/mL
  tmax: 47.8 h
[5]; [18]
  CL/F (apparent serum clearance, Dose/AUC Week 4): 1.89 mL/h/kg
  AUC0-τ: 556 µg·h/mL
  Cmax: 4170 ng/mL
  tmax: 24.0 h
[5]; [19]
  CL/F (apparent serum clearance, Dose/AUC Week 4): 2.29 mL/h/kg
  AUC0-τ: 1380 µg·h/mL
  Cmax: 10800 ng/mL
  tmax: 24.0 h
